Assay results from ChEMBL document CHEMBL1125860 (J Med Chem, 1991).
Values belong to the compound of their own block, whether it stands above or below them. Calls of active or inactive are those of the source. No cut-off for these calls is given here.

Experiments:
Rattus norvegicus [1] = organism: Rattus norvegicus; assay: In vitro inhibition of sorbitol accumulation was measured in rat sciatic nerves incubated in the presence of 50 mM glucose at 10e-5 M concentration; format: functional, Sciatic nerve
Rattus norvegicus [2] = organism: Rattus norvegicus; assay: In vitro inhibition of sorbitol accumulation was measured in rat sciatic nerves incubated in the presence of 50 mM glucose at 10e-6 M concentration; format: functional, Sciatic nerve
[3] = molecular target: Aldo-keto reductase family 1 member B1 (Bos taurus) (UniProt P16116); assay: In vitro % decrease of aldose reductase measured in isolated partially purified bovine lens preparations at 10e-7 M concentration
Rattus norvegicus [4] = assay: In vivo inhibition of galactitol accumulation in diaphragm of rat at 51 mg/kg/day; format: functional
Rattus norvegicus [5] = assay: In vivo inhibition of galactitol accumulation in sciatic nerves of rat at 51 mg/kg/day; format: functional; conditions: Sciatic nerve
Rattus norvegicus [6] = assay: In vivo inhibition of galactitol accumulation in diaphragm of rat at 52 mg/kg/day; format: functional
Rattus norvegicus [7] = assay: In vivo inhibition of galactitol accumulation in sciatic nerves of rat at 52 mg/kg/dayC; format: functional, organism-based; conditions: Sciatic nerve
Rattus norvegicus [8] = assay: In vivo inhibition of galactitol accumulation in diaphragm of rat at 144 mg/kg; format: functional
Rattus norvegicus [9] = assay: In vivo inhibition of galactitol accumulation in sciatic nerves of rat at 44 mg/kg/day; Not significant; format: functional, organism-based; conditions: Sciatic nerve
[10] = molecular target: Aldo-keto reductase family 1 member B1 (Bos taurus) (UniProt P16116); assay: In vitro % decrease of aldose reductase was measured in isolated partially purified bovine lens preparations at 10e-7 M concentration; Not active
Rattus norvegicus [11] = assay: In vivo inhibition of galactitol accumulation in diaphragm of rat at 11 mg/kg/day; format: functional
Rattus norvegicus [12] = assay: In vivo inhibition of galactitol accumulation in sciatic nerves of rat at 11 mg/kg/day; format: functional; conditions: Sciatic nerve
Rattus norvegicus [13] = assay: % reduction of aldose reductase inhibition was evaluated by measuring galactitol accumulation in sciatic nerves of rat at 32 mg/kg/day; format: functional; conditions: Sciatic nerve
Rattus norvegicus [14] = assay: In vivo inhibition of galactitol accumulation in sciatic nerves of rat at 32 mg/kg/day; format: functional; conditions: Sciatic nerve
Rattus norvegicus [15] = assay: In vivo inhibition of galactitol accumulation in sciatic nerves of rat at 11 mg/kg/day; Not significant; format: functional, organism-based; conditions: Sciatic nerve
Rattus norvegicus [16] = assay: In vivo inhibition of galactitol accumulation in sciatic nerves of rat at 123 mg/kg/day; format: functional; conditions: Sciatic nerve
Rattus norvegicus [17] = assay: In vivo inhibition of galactitol accumulation in diaphragm of rat at 123 mg/kg/day; format: functional
Rattus norvegicus [18] = assay: In vivo inhibition of galactitol accumulation in sciatic nerves of rat at 97 mg/kg/day; format: functional; conditions: Sciatic nerve
Rattus norvegicus [19] = assay: In vivo inhibition of galactitol accumulation in diaphragm of rat at 97 mg/kg/day; format: functional
Rattus norvegicus [20] = assay: In vivo inhibition of galactitol accumulation in sciatic nerves of rat at 26 mg/kg/day; format: functional; conditions: Sciatic nerve
Rattus norvegicus [21] = assay: In vivo inhibition of galactitol accumulation in sciatic nerves of rat at 49 mg/kg/day; format: functional; conditions: Sciatic nerve
Rattus norvegicus [22] = assay: In vivo inhibition of galactitol accumulation in diaphragm of rat at 49 mg/kg; format: functional
Rattus norvegicus [23] = assay: In vivo inhibition of galactitol accumulation in diaphragm of rat at 132 mg/kg/day; format: functional
Rattus norvegicus [24] = assay: In vivo inhibition of galactitol accumulation in sciatic nerves of rat at 132 mg/kg/day; format: functional; conditions: Sciatic nerve
Rattus norvegicus [25] = assay: In vivo inhibition of galactitol accumulation in diaphragm of rat at 16 mg/kg/day; format: functional
Rattus norvegicus [26] = assay: In vivo inhibition of galactitol accumulation in sciatic nerves of rat at 16 mg/kg/day; Not significant; format: functional, organism-based; conditions: Sciatic nerve
Rattus norvegicus [27] = assay: In vivo inhibition of galactitol accumulation in sciatic nerves of rat at 75 mg/kg/day; format: functional; conditions: Sciatic nerve
Rattus norvegicus [28] = assay: In vivo inhibition of galactitol accumulation in sciatic nerves of rat at 53 mg/kg/day; format: functional; conditions: Sciatic nerve
Rattus norvegicus [29] = assay: In vivo inhibition of galactitol accumulation in diaphragm of rat at 53 mg/kg/day; format: functional
Rattus norvegicus [30] = assay: In vivo inhibition of galactitol accumulation in diaphragm of rat at 25 mg/kg/day; […]; format: functional, organism-based
Rattus norvegicus [31] = assay: In vivo inhibition of galactitol accumulation in diaphragm of rat at 75 mg/kg/day; format: functional
Rattus norvegicus [32] = assay: In vivo inhibition of galactitol accumulation in sciatic nerves of rat at 25 mg/kg/day; format: functional; conditions: Sciatic nerve
Rattus norvegicus [33] = assay: In vivo inhibition of galactitol accumulation in the RBC of galactose fed rat.; format: functional
Rattus norvegicus [34] = assay: In vivo inhibition of galactitol accumulation in sciatic nerves of rat at 5 mg/kg/day; format: functional; conditions: Sciatic nerve
Rattus norvegicus [35] = organism: Rattus norvegicus; assay: Inhibition of galactitol accumulation in rat RBC incubated in presence of 50 mM glucose; format: functional, organism-based
Rattus norvegicus [36] = organism: Rattus norvegicus; assay: Inhibition of galactitol accumulation in sciatic nerves of rat incubated in presence of 50 mM glucose.; format: functional, organism-based; conditions: Sciatic nerve
Rattus norvegicus [37] = assay: In vivo inhibition of galactitol accumulation in diaphragm of rat at 5 mg/kg/day; format: functional
Rattus norvegicus [38] = assay: In vivo inhibition of galactitol accumulation in diaphragm of rat at 10 mg/kg/day; format: functional
Rattus norvegicus [39] = assay: In vivo inhibition of galactitol accumulation in sciatic nerves of rat at 10 mg/kg/day; format: functional; conditions: Sciatic nerve
[40] = molecular target: Aldo-keto reductase family 1 member B1 (Bos taurus) (UniProt P16116); assay: Inhibition of aldose reductase activity was measured on partially purified bovine lens preparations incubated in presence of 50 mM glucose; Not active
Rattus norvegicus [41] = organism: Rattus norvegicus; assay: Inhibition of aldose reductase activity was measured by measuring sorbitor accumulation in the sciatic nerves of STZ diabetic rat.; format: functional; conditions: Sciatic nerve
Rattus norvegicus [42] = assay: In vivo inhibition of galactitol accumulation in sciatic nerves of galactose fed rat.; format: functional; conditions: Sciatic nerve
Rattus norvegicus [43] = organism: Rattus norvegicus; assay: Inhibition of galactitol accumulation in rat lens incubated in presence of 50 mM glucose; format: functional, organism-based; conditions: Lens of camera-type eye

SMILES: CCN(CC)C(=O)COC(=O)CN(C(=O)OC)C(=O)c1c(F)ccc2c(C(F)(F)F)c(OC)ccc12
- inhibition [10]: inactive
- inhibition in vivo at 11 mg/kg/day (Rattus norvegicus [11]): 36%
- inhibition in vivo at 11 mg/kg/day (Rattus norvegicus [12]): 39%
- inhibition in vivo at 32 mg/kg/day (Rattus norvegicus [13]): 75%
- inhibition in vivo at 32 mg/kg/day (Rattus norvegicus [14]): 75%

SMILES: COc1ccc2c(C(=S)N(C)CC(=O)O)cc(C)cc2c1Br
- inhibition (Rattus norvegicus [15]): inactive
- Inhibition (Rattus norvegicus [1]): 86%
- Inhibition (Rattus norvegicus [2]): 43%
- inhibition [3]: 85%
- inhibition in vivo at 11 mg/kg/day (Rattus norvegicus [11]): 48%
- inhibition in vivo at 123 mg/kg/day (Rattus norvegicus [16]): 86%
- inhibition in vivo at 123 mg/kg/day (Rattus norvegicus [17]): 91%

SMILES: COc1ccc2c(C(=O)N(C)CC(=O)O)c(Br)ccc2c1C(F)(F)F
- inhibition in vivo at 97 mg/kg/day (Rattus norvegicus [18]): 44%
- Inhibition (Rattus norvegicus [1]): 67%
- Inhibition (Rattus norvegicus [2]): 37%
- inhibition [3]: 63%
- inhibition in vivo at 97 mg/kg/day (Rattus norvegicus [19]): 84%

SMILES: COc1ccc2c(C(=O)N(C)CC(=O)O)cc(-c3ccccc3)cc2c1Br
- Inhibition (Rattus norvegicus [1]): 71%
- Inhibition (Rattus norvegicus [2]): 28%
- inhibition [3]: 83%
- inhibition in vivo at 132 mg/kg/day (Rattus norvegicus [23]): 33%
- inhibition in vivo at 132 mg/kg/day (Rattus norvegicus [24]): 24%

SMILES: COc1ccc2c(C(=O)N(C)CC(=O)O)cccc2c1C(F)(F)F
- Inhibition (Rattus norvegicus [1]): 74%
- Inhibition (Rattus norvegicus [2]): 27%
- inhibition in vivo at 75 mg/kg/day (Rattus norvegicus [27]): 56%
- inhibition in vivo at 53 mg/kg/day (Rattus norvegicus [28]): 93%
- inhibition in vivo at 53 mg/kg/day (Rattus norvegicus [29]): 94%
- inhibition (Rattus norvegicus [30]): inactive
- inhibition in vivo at 75 mg/kg/day (Rattus norvegicus [31]): 27%
- inhibition in vivo at 25 mg/kg/day (Rattus norvegicus [32]): 33%

More lines, main results first:

- inhibition [3]: 77%
SMILES: COC(=O)N(CC(=O)O)C(=O)c1c(Br)ccc2c(C(F)(F)F)c(OC)ccc12
- Inhibition (Rattus norvegicus [1]): 68%
- Inhibition (Rattus norvegicus [2]): 29%
- inhibition in vivo at 51 mg/kg/day (Rattus norvegicus [4]): 62%
- inhibition in vivo at 51 mg/kg/day (Rattus norvegicus [5]): 69%

- inhibition [3]: 80%
SMILES: COc1ccc2c(C(=O)N(C)CC(=O)O)ccc(Cc3ccccc3)c2c1Br
- inhibition in vivo at 52 mg/kg/day (Rattus norvegicus [6]): 34%
- inhibition (Rattus norvegicus [7]): inactive

- inhibition [3]: 74%
SMILES: COc1ccc2c(C(=O)N(C)CC(=O)O)cc(Cc3ccccc3)cc2c1Br
- inhibition in vivo at 144 mg/kg (Rattus norvegicus [8]): 24%
- Inhibition (Rattus norvegicus [1]): 72%
- Inhibition (Rattus norvegicus [2]): 44%
- inhibition (Rattus norvegicus [9]): inactive

- inhibition [3]: 63%
SMILES: COc1ccc2c(C(=O)N(C)CC(=O)O)c(Cl)ccc2c1C(F)(F)F
- Inhibition (Rattus norvegicus [1]): 67%
- Inhibition (Rattus norvegicus [2]): 39%
- inhibition in vivo at 26 mg/kg/day (Rattus norvegicus [20]): 43%
- inhibition in vivo at 49 mg/kg/day (Rattus norvegicus [21]): 83%
- inhibition in vivo at 49 mg/kg (Rattus norvegicus [22]): 80%

- inhibition [10]: inactive
SMILES: COC(=O)N(CC(N)=O)C(=O)c1c(F)ccc2c(C(F)(F)F)c(OC)ccc12
- inhibition (Rattus norvegicus [15]): inactive
- Inhibition (Rattus norvegicus [1]): 34%
- Inhibition (Rattus norvegicus [2]): 4%
- inhibition in vivo at 11 mg/kg/day (Rattus norvegicus [11]): 28%
- inhibition in vivo at 16 mg/kg/day (Rattus norvegicus [25]): 33%
- inhibition (Rattus norvegicus [26]): inactive

- IC50 (Rattus norvegicus [35]): 12 µM
- IC50 (Rattus norvegicus [36]): 3.1 µM
- inhibition [40]: inactive
- IC50 (Rattus norvegicus [43]): > 10 µM
SMILES: COc1ccc2c(C(=O)N(C)CC(N)=O)c(F)ccc2c1C(F)(F)F
- ED50 (Rattus norvegicus [33]): 8.5 mg/kg
- inhibition in vivo at 5 mg/kg/day (Rattus norvegicus [34]): 39%
- Inhibition (Rattus norvegicus [1]): 80%
- Inhibition (Rattus norvegicus [2]): 17%
- inhibition in vivo at 5 mg/kg/day (Rattus norvegicus [37]): 32%
- inhibition in vivo at 10 mg/kg/day (Rattus norvegicus [38]): 41%
- inhibition in vivo at 10 mg/kg/day (Rattus norvegicus [39]): 59%
- ED50 (Rattus norvegicus [41]): < 3 mg/kg
- ED50 (Rattus norvegicus [42]): 5.5 mg/kg
